Assay results from patent US11091478B2 (Fochon Pharmaceuticals, Ltd., priority 2017, dated 2021).
pIC50: −log10 of the molar value.

Legend:
RS4;11 cells = assay: Cell proliferation assay (MTS), RS4;11 cells, 72 h; type: cell-based; details: Homo sapiens, RS4-11, 72 h
In short: (§1)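 Cells in RPMI-1640 with 10% FBS were seeded at 5000/well, left overnight at 37° C., 5% CO2, then exposed to compound at 10000 down to 1.5 nM (nine concentrations) for 72 h (RS4;11) or 120 h (DOHH2). Viability was read by MTS, 2 h, absorbance at 490/650 nm; IC50 calculated.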

DOHH2 cells = assay: Cell proliferation assay (MTS), DOHH2 cells, 120 h; type: cell-based; details: Homo sapiens, DOHH-2, 120 h
In short: as §1

SMILES	pIC50 (RS4;11 cells)	pIC50 (DOHH2 cells)
CN1CCN(C[C@H]2CNc3cc(S(=O)(=O)NC(=O)c4ccc(N5CCN(CC6=C(c7ccc(Cl)cc7)CC(C)(C)CC6)CC5)cc4Oc4cnc5[nH]ccc5c4)cc([N+](=O)[O-])c3N2)CC1 [Example 4-3, (R)-2-((1H-pyrrolo[2,3-b]pyridin-5-yl)oxy)-4-(4-((4′-chloro-5,5-dimethyl-3,4,5,6-tetra-hydro-[1,1′-biphenyl]-2-yl)methyl)piperazin-1-yl)-N-((2-((4-methylpiperazin-1-yl)methyl)-8-nitro-1,2,3,4-tetrahydroquinoxalin-6-yl)sulfonyl)benzamide]	7.34	7.42
CC1(C)CCC(CN2CCN(c3ccc(C(=O)NS(=O)(=O)c4cc5c(c([N+](=O)[O-])c4)O[C@@H](CN4CCOCC4)CO5)c(Oc4cnc5[nH]ccc5c4)c3)CC2)=C(c2ccc(Cl)cc2)C1 [Example 5-1, (S)-2-((1H-pyrrolo[2,3-b]pyridin-5-yl)oxy)-4-(4-((4′-chloro-5,5-dimethyl-3,4,5,6-tetrahydro-[1,1′-biphenyl]-2-yl)methyl)piperazin-1-yl)-N-((2-(morpholinomethyl)-8-nitro-2,3-dihydrobenzo[b][1,4]dioxin-6-yl)sulfonyl)benzamide]	8.05	7.77
CN1CCN(C[C@H]2COc3cc(S(=O)(=O)NC(=O)c4ccc(N5CCN(CC6=C(c7ccc(Cl)cc7)CC(C)(C)CC6)CC5)cc4Oc4cnc5[nH]ccc5c4)cc([N+](=O)[O-])c3O2)CC1 [Example 5-2]	9.00	7.60
CC1(C)CCC(CN2CCN(c3ccc(C(=O)NS(=O)(=O)c4cc5c(c([N+](=O)[O-])c4)O[C@H](CN4CCOCC4)CO5)c(Oc4cnc5[nH]ccc5c4)c3)CC2)=C(c2ccc(Cl)cc2)C1 [Example 5-3, (R)-2-((1H-pyrrolo[2,3-b]pyridin-5-yl)oxy)-4-(4-((4′-chloro-5,5-dimethyl-3,4,5,6-tetrahydro-[1,1′-biphenyl]-2-yl)methyl)piperazin-1-yl)-N-((2-(morpholinomethyl)-8-nitro-2,3-dihydrobenzo[b][1,4]dioxin-6-yl)sulfonyl)benzamide]	8.40	7.92
CN1CCN(C[C@@H]2COc3cc(S(=O)(=O)NC(=O)c4ccc(N5CCN(CC6=C(c7ccc(Cl)cc7)CC(C)(C)CC6)CC5)cc4Oc4cnc5[nH]ccc5c4)cc([N+](=O)[O-])c3O2)CC1 [Example 5-4]	7.47	7.89

Now from value to compound, other results behind:

pIC50 (RS4;11 cells)	SMILES	pIC50 (DOHH2 cells)
7.85	CC1(C)CCC(CN2CCN(c3ccc(C(=O)NS(=O)(=O)c4cc5c(c([N+](=O)[O-])c4)N[C@@H](CN4CCOCC4)CN5)c(Oc4cnc5[nH]ccc5c4)c3)CC2)=C(c2ccc(Cl)cc2)C1 [Example 4-4, (R)-2-((1H-pyrrolo[2,3-b]pyridin-5-yl)oxy)-4-(4-((4′-chloro-5,5-dimethyl-3,4,5,6-tetra-hydro-[1,1′-biphenyl]-2-yl)methyl)piperazin-1-yl)-N-((2-(morpholinomethyl)-8-nitro-1,2,3,4-tetrahydroquinoxalin-6-yl)sulfonyl) benzamide]	7.55
8.70	CC1(C)CCC(CN2CCN(c3ccc(C(=O)NS(=O)(=O)c4cc5c(c([N+](=O)[O-])c4)N[C@H](CN4C[C@@H]6C[C@H]4CO6)CO5)c(-n4ncc5nc6[nH]ccc6cc54)c3)CC2)=C(c2ccc(Cl)cc2)C1 [Example 6-1, N—(((R)-3-(((1S,4S)-2-oxa-5-azabicyclo[2.2.1]heptan-5-yl)methyl)-5-nitro-3,4-dihydro-2H-benzo[b][1,4]oxazin-7-yl)sulfonyl)-4-(4-((4′-chloro-5,5-dimethyl-3,4,5,6-tetrahydro-[1,1′-biphenyl]-2-yl)methyl)piperazin-1-yl)-2-(pyrazolo[4,3-b]pyrrolo[3,2-e]pyridin-1(5H)-yl)benzamide]	7.14
